Key:
[1] = test system: Human non-small-cell lung cancer cells (NCI-H1299); assay: Radiation (X-ray) sensitizing effect, DNA fragmentation (subG1, FACS) in NCI-H1299 cells; format: cell-based
Text: Pharmaceutical Test 5 (Method of Determining Drug Potency with Cells (Radiation (X-Ray) Sensitizing Effect))
Fetal bovine serum (FBS) was gotten from Morgate; RPMI 1640 medium and 0.25% trypsin EDTA were from Invitrogen; cycle test plus DNA reagent kit was from Becton Dickinson; and nylon net filter was from Millipore.
Human non-small-cell lung cancer cells (NCI-H1299) were gotten from ATCC.
NCI-H1299 cells were suspended in 10% FBS-added RPMI 1640 medium, and the cell suspension was applied to a 6-well Nunclondelta-processed plastic plate bought from Nunc, in an amount of 100,000 cell/2 ml/well, and incubated overnight in 5% CO2-95% air at 37° C. Using Softex's M-150WE, the cells were irradiated with 5000 R X-rays, and then further incubated in 5% CO2-95% air at 37° C. for 16 hours. A test compound was stepwise diluted with DMSO, and applied to a plate with the X-ray-processed cells sowed thereon, in an amount of 2 μL. This was incubated in 5% CO2-95% air at 37° C. for 8 hours, and then the culture was partly taken out. 0.25% trypsin was added to the cells remaining on the plate, in an amount of 600 μL, and statically kept at room temperature to prepare a single cell suspension. […] Using Becton Dickinson's FACS Calibur, the DNA amount in each cell was quantitatively determined according to a FACS process, and the ratio of the cells having caused DNA fragmentation was determined.

[2] = test system: Human colon cancer cells WiDr; assay: Tumor growth-inhibitory effect, WiDr tumor implanted subcutaneously in nude rats; format: in vivo, F344/N Jcl-mu nude rats; conditions: compound alone 0.75 mg/kg/hr, continuous intravenous injection for 8 hours
Experimental: Pharmaceutical Test 4 (Tumor Growth-Inhibitory Effect)
Human colon cancer cells WiDr (gotten from ATCC) were implanted into the subcutaneous area of the back of F344/N Jcl-mu nude rats. Eight days after the implantation, gemcitabine (50 mg/kg, Gemzar injection, Eli-Lilly) was intravenously administered to them; and after 24 hours, a test compound was dissolved in a solvent (5% glucose) and given to them through continuous intravenous injection for 8 hours. The tumor volume (0.5×(major diameter)×(minor diameter)^2) was determined on day 0, 3, 6, 10 and 13. Day 0 means the day on which gemcitabine was administered. The relative tumor volume is a relative value, as calculated on the basis of the tumor volume of 1 on day 0. The tumor growth percentage (% T/C) was obtained according to the following formula:
When the tumor volume change from day 0 in the group subjected to test compound administration is more than 0 (>0): % T/C=[(tumor volume change in the test compounds on day 3, 6, 10, 13)/(tumor volume change in the control on day 3, 6, 10, 13)]×100. When the tumor volume change from day 0 in the group subjected to test compound administration is less than 0 (<0): % T/C=[(tumor volume change in the test compounds on day 3, 6, 10, 13)/(tumor volume […])]×100.

C=CCn1c(=O)c2cnc(Nc3ccc(N4CCN(C)CC4)cc3)nc2n1-c1cccc(C(C)(C)O)n1 [Example 53, 2-allyl-1-[6-(1-hydroxy-1-methylethyl)pyridin-2-yl]-6-{[4-(4-methylpiperazin-1-yl)phenyl]amino}-1,2-dihydro-3H-pyrazolo[3,4-d]pyrimidin-3-one]
DNA Fragmentation-Inducing Effect (H1299) (subG1, %) ([1]; X-ray (5000 R, 16 hours before) + compound for 8 hours): 54.8% | DNA Fragmentation-Inducing Effect (H1299) (subG1, %) ([1]; compound alone, without X-ray, 8 hours): 3.9% | % T/C day 3 ([2]; day 3): 86% | % T/C day 6 ([2]; day 6): 74% | % T/C day 10 ([2]; day 10): 81% | % T/C day 13 ([2]; day 13): 89%
